Data taken from PMC11404609, “Gut microbiota-mediated C-sulfonate metabolism impairs the bioavailability and anti-cholestatic efficacy of andrographolide” (Gut Microbes, 2024).
Where a name gives a salt, the structure may show the parent alone. Read-outs that look alike come from different tables or passages of the source.

Legend:
[1] = AP incubation with duodenal perfusate; format: in vitro ADME, rat; conditions: AP 40 μM
Experimental: To investigate whether HSO3^- is the essential ligand for the C-sulfonate metabolism of AP, duodenal perfusate of SD rat was collected according to the method described in the literature^5. The duodenal perfusate was filtered by 0.22 μm Millex® needle filter, ultrafiltered by Amicon® Ultra filter or placed in an autoclave at 121°C for 2 hours, and then incubated with AP (40 μM) in vitro for 30, 60, 90 and 120 min. In another experiment, duodenal perfusate was autoclaved and then combined with HSO3^- (80 μM) and incubated with AP (40 μM) in vitro for 120 min. At the end of the incubation, 100 μL of ice-cold acetonitrile was quickly added to terminate the reaction. After centrifugation at 13000 rpm for 30 min, the supernatant was collected for UPLC-MS/MS analysis.

[2] = Tissue distribution of AP and APM in mice; format: in vivo
Experimental: (§1) Control and ABX rats were orally administered a single dose of AP at 120 mg/kg. Control, ABX and germ-free C57BL/6J mice were orally administered a single dose of AP at 100 mg/kg. After 90 min of AP administration, all animals were euthanized, and blood and tissue samples were collected for subsequent analysis.
After 360 min of AP treatment, all mice were euthanized, and tissue samples were collected for subsequent analysis. […]
(§2) An ACQUITY^TM UPLC-MS/MS system equipped with an ACQUITY^TM UPLC BEH C18 Column (50 × 2.1 mm I.D., 1.7 μm, Waters, Milford, MA, USA) was utilized for the quantification of AP and APM as previously described.[47] Briefly, the detection samples (50 μL) were mixed with 50 μL of IS (50 ng/mL). AP and APM were extracted by 400 μL cold methanol. Supernatants were dried under nitrogen stream. Then, the residue was dissolved with 50% methanol in water, centrifuged for 30 min at 13,000 rpm, and 10 µL of the supernatant was subjected to UPLC-MS/MS analysis. The mobile phases consisted of eluent A (water) and eluent B (methanol) with a gradient elution as follows: 0–0.8 min, 10% B; 0.8–1.2 min, 10–90% B; 1.2–5.0 min, 90% B; 5.0–5.5 min, 90–10% B; 5.5–7.0 min, 10% B. The flow rate was 0.3 mL/min and the injection volume of all samples was 10 μL. The quantification of AP, APM and IS was performed by UPLC-MS/MS using an MRM method with the transitions of m/z 349.1→m/z 287.2 for AP, m/z 413.2→m/z 287.2 for APM, m/z 269→m/z 133 for IS.
(§3) AP was administered intravenously and orally to detect the production of the C-sulfonate metabolite APM. In tissue distribution experiment, rats were given AP intravenously (24 mg/kg) or orally (120 mg/kg), while mice received AP intravenously (20 mg/kg) or orally (100 mg/kg). After a 90-minute interval, the animals were sacrificed, and their liver, kidneys, small intestine, and colon were collected for analysis. In pharmacokinetic studies, rats were administered 24 mg/kg of AP intravenously or 120 mg/kg of AP by oral gavage. Blood samples were collected at predetermined time intervals (0, 5, 10, 20, 30, 40, 60, 90, 120, 180, 240, 360, and 480 min), as described, to detect the content of AP and APM by UPLC-MS/MS.

[3] = set-up: method as in PMID 21721007; conditions: AP incubated with rat duodenal perfusate; cited from earlier work
[4] = Tissue distribution of AP and APM in rats; format: in vivo
Experimental: as §1, §2, §3

HSO3^− = HSO3^− concentration in the cecum; format: in vivo; conditions: mice
Experimental: Mice were orally administered APS reductase inhibitor bromocriptine mesylate (20 mg/kg, p.o.) or Na2SO4 (200 mg/kg, p.o.) or saline solution 1 week before AP treatment (a single dose of AP at 100 mg/kg, p.o.). After 360 min of AP treatment, all mice were euthanized, and tissue samples were collected for subsequent analysis. In specific cases, mice were orally administered D. piger suspension (0.2 mL, 1 × 10^9 CFU/mL) or saline solution 2 weeks before AP treatment (a single dose of AP at 100 mg/kg, p.o.).
(§4) For the determination of APS reductase concentration, the supernatant from mouse cecum contents and the D. piger strain were assessed using microorganism APS reductase elisa assay kit (Shanghai Senxingyan Biotechnology Co., Ltd., China), following the instructions provided with the kit. For the determination of HSO3^− concentration, cecum contents from mice or rats were weighed and homogenized in five volumes of normal saline (based on tissue weight). The homogenate was then subjected to centrifugation at 13,000 rpm and 4°C for 15 min. The supernatant (or perfusate) was collected and mixed with 0.2% formaldehyde, 0.05% basic fuchsin, and 0.01% EDTA-Na2 in a ratio of 1:1:1:9 under acidic conditions. To establish a standard curve, different concentrations of NaHSO3 were used. Subsequently, the absorbance of the resulting solutions was measured at a wavelength of 560 nm after 40 min.

[5] = set-up: method as in PMID 36809835, PMID 34142342; conditions: dose-dependent increase; cited from earlier work
APS reductase = APS reductase level in feces by qPCR; format: in vivo; conditions: mice feces, bromocriptine mesylate 20 mg/kg p.o.
Experimental: Total RNA from frozen livers of Vehicle, AP (200 mg/kg, i.p.), ANIT (50 mg/kg), and ANIT+AP (200 mg/kg, i.p.) groups was extracted using the Animal Total RNA Isolation Kit (FOREGENE, China). cDNA was synthesized using a Color Reverse Transcription Kit (EZBioscience, Roseville, CA, USA). qPCR was performed using SYBR green/Rox qPCR master mix (EZBioscience, Roseville, CA, USA), according to the manufacturer’s instruction. The expression of target genes was normalized to β-actin, and fold changes were calculated using 2^–ΔΔCT method. For bacterial identification, genomic DNA of fecal flora was isolated using the TIANamp Stool DNA Kit (TIANGEN, Beijing, China) and qPCR was performed. The relative abundance and expression of Desulfovibrio spp., D. piger and APS reductase were normalized to the amounts of total bacteria (16S). All primers were synthesized by Tsingke Biotechnology Co., Ltd. (Beijing, China) and were listed in Supplementary Table S1.

D. piger = format: in vitro ADME, Desulfovibrio piger; conditions: D. piger with inhibitor
Experimental: The cecum contents from mice were collected and mixed with sterilized anaerobic medium in a ratio of 1.0 g to 10 mL, with gentle agitation. After filtered, the mixed medium containing the intestinal flora was placed in an anaerobic environment and preincubated at 37°C for 30 min before use. Mixed medium with or without APS reductase inhibitor bromocriptine mesylate (20 μg/mL) was incubated with AP (10 μg/mL), while autoclaved mixed medium without APS reductase inhibitor served as the control. Incubation was performed in a shaking incubator at 37°C for 6 h, with strict maintenance of anaerobic condition throughout the process.[44] Similarly, D. piger (0.2 mL, 1 × 10^8 CFU/mL) with or without inhibitor, was incubated with AP for 0, 3, 6, and 12 h, with autoclaved D. piger without inhibitor serving as the control. […] And then samples were analyzed by UPLC-MS/MS to detect the concentrations of AP and APM. Concentrations of APS reductase and HSO3^− were also determined at the end of incubation.
For the determination of APS reductase concentration, the supernatant from mouse cecum contents and the D. piger strain were assessed using microorganism APS reductase elisa assay kit (Shanghai Senxingyan Biotechnology Co., Ltd., China), following the instructions provided with the kit. […] Subsequently, the absorbance of the resulting solutions was measured at a wavelength of 560 nm after 40 min.

intestinal flora of mice = assay: Co-culturing AP with cecum samples from mice; format: in vitro ADME; conditions: bromocriptine mesylate 20 μg/mL
Experimental: The cecum contents from mice were collected and mixed with sterilized anaerobic medium in a ratio of 1.0 g to 10 mL, with gentle agitation. After filtered, the mixed medium containing the intestinal flora was placed in an anaerobic environment and preincubated at 37°C for 30 min before use. Mixed medium with or without APS reductase inhibitor bromocriptine mesylate (20 μg/mL) was incubated with AP (10 μg/mL), while autoclaved mixed medium without APS reductase inhibitor served as the control. Incubation was performed in a shaking incubator at 37°C for 6 h, with strict maintenance of anaerobic condition throughout the process.[44] Similarly, D. piger (0.2 mL, 1 × 10^8 CFU/mL) with or without inhibitor, was incubated with AP for 0, 3, 6, and 12 h, with autoclaved D. piger without inhibitor serving as the control. The reaction was terminated by adding cold methanol contained IS. And then samples were analyzed by UPLC-MS/MS to detect the concentrations of AP and APM. Concentrations of APS reductase and HSO3^− were also determined at the end of incubation.
as §4

[6] = Safety of APS reductase inhibitor (liver, renal, blood lipid indicators); format: in vivo; conditions: mice, 20 mg/kg orally for 14 days
Experimental: Supplementary Figure 5. […] (A-D) Liver function indicators including ALT, AST, TBA, and TBIL. (E-G) Renal function indicators including CREA, UREA, and UA. (H-K) Blood lipid indicators including TG, TC, HDL-C, and LDL-C. Inhibitor refers to the treatment with the APS reductase inhibitor bromocriptine mesylate at a dosage of 20 mg/kg, administered orally for 14 days in mice. Data are presented as mean ± SEM (n = 8 per group).

## C=C1CCC2C(C)(CO)C(O)CCC2(C)C1CC(C1=CCOC1=O)S(=O)(=O)O [APM, 14-deoxy-12(R)-sulfo andrographolide]
[1]; autoclaved duodenal perfusate
  APM generation: not detectable
[1]; autoclaved perfusate with addition of HSO3^− (80 μM), 120 min
  APM generation: production of APM
[1]; duodenal perfusate after filtration and ultrafiltration
  APM generation: continued APM generation
[2]; ABX-treated mice vs Control, AP 100 mg/kg oral
  concentration of APM in tissues: decreased
[2]; mice colonized with D. piger vs Control, AP 100 mg/kg p.o.
  concentration of APM in tissues: increase
[2]; mice of pharmacological experiment, AP 200 mg/kg, following ABX treatment vs Control
  level of APM in the intestine and liver: decreased significantly
[2]; mice, AP 200 mg/kg p.o. with APS reductase inhibitor vs without
  APM within the small intestine and liver: decrease
[2]; mice, oral administration of AP (100 mg/kg)
  APM in all tissues: significant amount of APM was detected
[2]; mice, tail vein administration of AP (20 mg/kg)
  APM in the intestine, liver, and kidneys: undetectable
[3]
  APM generation: large amounts
[4]; ABX-treated rats vs Control, AP 120 mg/kg oral
  levels of APM in plasma and tissues: reduced levels
[4]; rats, oral administration of AP (120 mg/kg)
  APM in all tissues: significant amount of APM was detected
[4]; rats, tail vein administration of AP (24 mg/kg)
  APM in the intestine, liver, and kidneys: undetectable

## O=S(=O)([O-])[O-].[Na+].[Na+] [Na2SO4, sodium sulfate]
HSO3^−; Na2SO4 200 mg/kg p.o.
  HSO3^− content in the cecum: significant increase

## CC[C@H]1[C@@H](O)[C@@H]2[C@H](CC[C@]3(C)[C@@H]([C@H](C)CCC(=O)O)CC[C@@H]23)[C@@]2(C)CC[C@@H](O)C[C@@H]12 [OCA, obeticholic acid]
[5]
  pruritus, share of treated patients: roughly 40%

## CC(C)C[C@H]1C(=O)N2CCC[C@H]2[C@]2(O)O[C@](NC(=O)[C@@H]3C=C4c5cccc6[nH]c(Br)c(c56)C[C@H]4N(C)C3)(C(C)C)C(=O)N12 [bromocriptine mesylate]
APS reductase
  APS reductase level: decrease
HSO3^−; bromocriptine mesylate 20 mg/kg p.o.
  HSO3^− content in the cecum: decrease
D. piger
  effect on D. piger metabolism of AP into APM (APS reductase and HSO3^− production): significantly inhibited
Intestinal flora of mice; AP 10 μg/mL, 6 h
  effect on conversion of AP into APM by the intestinal flora: effectively impeded
Intestinal flora of mice; co-culture of AP with cecum samples
  concentrations of APS reductase and HSO3^−: significant decrease
[6]
  damage to organism (liver function, renal function, blood lipid indicators): did not induce damage to organism
